In patent publication US8440708B2, “Triazole-substituted arylamides as P2X3 and P2X2/3 antagonists” (Roche Palo Alto LLC, priority 2007, dated 2013):

What was measured:
[1] = molecular target: T1, human P2X2/3 receptor (Homo sapiens, UniProt P56373+Q9UBL9); experiment: P2X3/P2X2/3 FLIPR (Fluorometric Imaging Plate Reader) Assay, P2X2/3; type: cell-based; conditions: CHO-K1 cells transfected with human P2X2/3; agonist α,β-meATP 5 μM; Table 1; read-out: P2X2/3 pKi (converted)
T1 construct: expressed in transfected cells; host or cells: CHO-K1
T1 sequence (Q9UBL9 1-471): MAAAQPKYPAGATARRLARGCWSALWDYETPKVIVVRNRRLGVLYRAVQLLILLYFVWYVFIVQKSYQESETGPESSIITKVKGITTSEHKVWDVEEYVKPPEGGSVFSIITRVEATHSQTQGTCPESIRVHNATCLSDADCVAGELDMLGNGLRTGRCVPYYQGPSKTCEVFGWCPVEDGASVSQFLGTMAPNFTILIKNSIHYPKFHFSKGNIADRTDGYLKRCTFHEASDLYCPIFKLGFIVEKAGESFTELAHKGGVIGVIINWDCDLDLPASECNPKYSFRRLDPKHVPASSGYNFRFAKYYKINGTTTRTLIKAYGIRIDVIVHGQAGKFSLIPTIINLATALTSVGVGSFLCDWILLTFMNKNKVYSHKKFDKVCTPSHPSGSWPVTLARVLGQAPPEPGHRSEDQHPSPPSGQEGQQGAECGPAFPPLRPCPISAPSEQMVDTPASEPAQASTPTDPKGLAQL
T1 sequence (P56373 1-397): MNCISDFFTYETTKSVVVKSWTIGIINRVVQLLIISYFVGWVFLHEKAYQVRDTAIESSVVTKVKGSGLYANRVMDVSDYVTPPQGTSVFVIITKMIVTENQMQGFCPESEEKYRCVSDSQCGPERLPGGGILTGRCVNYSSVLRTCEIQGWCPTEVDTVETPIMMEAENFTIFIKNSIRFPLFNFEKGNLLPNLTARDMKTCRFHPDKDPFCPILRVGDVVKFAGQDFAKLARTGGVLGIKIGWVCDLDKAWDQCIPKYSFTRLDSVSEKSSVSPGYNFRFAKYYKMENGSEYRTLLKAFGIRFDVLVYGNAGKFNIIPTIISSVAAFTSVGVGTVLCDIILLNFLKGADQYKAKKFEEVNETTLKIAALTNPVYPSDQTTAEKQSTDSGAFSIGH
Procedure: (§1) P2X3/P2X2/3 FLIPR (Fluorometric Imaging Plate Reader) Assay
(§2) CHO-K1 cells were transfected with cloned rat P2X3 or human P2X2/3 receptor subunits and passaged in flasks. 18-24 hours before the FLIPR experiment, cells were released from their flasks, centrifuged, and resuspended in nutrient medium at 2.5×10^5 cells/ml. The cells were aliquoted into black-walled 96-well plates at a density of 50,000 cells/well and incubated overnight in 5% CO2 at 37° C. On the day of the experiment, cells were washed in FLIPR buffer (calcium- and magnesium-free Hank's balanced salt solution, 10 mM HEPES, 2 mM CaCl2, 2.5 mM probenecid; FB). Each well received 100 μl FB and 100 μl of the fluorescent dye Fluo-3 AM [2 μM final conc.]. After a 1 hour dye loading incubation at 37° C., the cells were washed 4 times with FB, and a final 75 μl/well FB was left in each well.
(§3) Test compounds (dissolved in DMSO at 10 mM and serially diluted with FB) or vehicle were added to each well (25 μl of a 4× solution) and allowed to equilibrate for 20 minutes at room temperature. The plates were then placed in the FLIPR and a baseline fluorescence measurement (excitation at 488 nm and emission at 510-570 nm) was obtained for 10 seconds before a 100 μl/well agonist or vehicle addition. The agonist was a 2× solution of α,β-meATP producing a final concentration of 1 μM (P2X3) or 5 μM (P2X2/3). Fluorescence was measured for an additional 2 minutes at 1 second intervals after agonist addition. A final addition of ionomycin (5 μM, final concentration) was made to each well of the FLIPR test plate to establish cell viability and maximum fluorescence of dye-bound cytosolic calcium. Peak fluorescence in response to the addition of α,β-meATP (in the absence and presence of test compounds) was measured and inhibition curves generated using nonlinear regression. PPADS, a standard P2X antagonist, was used as a positive control.

[2] = molecular target: T2, rat P2X3 receptor (Rattus norvegicus, UniProt P49654); experiment: P2X3/P2X2/3 FLIPR (Fluorometric Imaging Plate Reader) Assay, P2X3; type: cell-based; conditions: CHO-K1 cells transfected with rat P2X3; agonist α,β-meATP 1 μM; Table 1; read-out: P2X3 pKi (converted)
T2 construct: expressed in transfected cells; host or cells: CHO-K1
T2 sequence (P49654 1-397): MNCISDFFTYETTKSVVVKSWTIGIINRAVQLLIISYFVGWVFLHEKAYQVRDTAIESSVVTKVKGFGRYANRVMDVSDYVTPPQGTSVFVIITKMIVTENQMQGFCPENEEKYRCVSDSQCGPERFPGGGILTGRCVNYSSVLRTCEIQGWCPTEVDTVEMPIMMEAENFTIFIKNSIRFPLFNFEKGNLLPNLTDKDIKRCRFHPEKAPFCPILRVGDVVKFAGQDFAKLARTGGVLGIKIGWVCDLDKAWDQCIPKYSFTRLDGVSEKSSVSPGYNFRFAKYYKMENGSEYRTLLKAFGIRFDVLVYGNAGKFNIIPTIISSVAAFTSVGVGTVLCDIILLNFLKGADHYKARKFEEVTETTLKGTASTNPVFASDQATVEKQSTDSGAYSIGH
Procedure: as §1, §2, §3

| Compound | Ki [1] | Ki [2] |
| --- | --- | --- |
| CCc1ncnn1-c1cc(C(=O)NC(C)c2cnccn2)cc(-c2ccc(Cl)cn2)c1 (stereo not drawn) [Compound 106, 3-(5-Chloro-pyridin-2-yl)-5-(5-ethyl-[1,2,4]triazol-1-yl)-N-(1-pyrazin-2-yl-ethyl)-benzamide] | 759 nM | 19.1 nM |
| Cc1cnc(CNC(=O)c2cc(-c3ccc(Cl)cn3)cc(-n3ncnc3C(F)F)c2)cn1 [Compound 77, 3-(5-Chloro-pyridin-2-yl)-5-(5-difluoromethyl-[1,2,4]triazol-1-yl)-N-(5-methyl-pyrazin-2-ylmethyl)-benzamide] | 724 nM | 9.77 nM |
| Cc1ccc(-c2cc(C(=O)NCc3ccn(C)c(=O)c3)cc(-n3ncnc3C(C)C)c2)nc1 [Compound 159, 3-(5-Isopropyl-[1,2,4]triazol-1-yl)-N-(1-methyl-2-oxo-1,2-dihydro-pyridin-4-ylmethyl)-5-(5-methyl-pyridin-2-yl)-benzamide] | 26.3 nM | 2.95 nM |
| CCCc1ncnn1-c1cc(C(=O)NC(C)CN(C)C)cc(-c2ccc(C)cc2)c1 (stereo not drawn) [Compound 63, 4′-Methyl-5-(5-propyl-[1,2,4]triazol-1-yl)-biphenyl-3-carboxylic acid (2-dimethylamino-1-methyl-ethyl)-amide] | 10000 nM | 339 nM |
| CCCc1ncnn1-c1cc(C(=O)N[C@@H](C)CO)cc(-c2ccc(Cl)cn2)c1 [Compound 111, 3-(5-Chloro-pyridin-2-yl)-N-((S)-2-hydroxy-1-methyl-ethyl)-5-(5-propyl-[1,2,4]triazol-1-yl)-benzamide] | 4900 nM | 18.2 nM |
| Cc1ccc(-c2cc(C(=O)N[C@@H](C)CO)cc(-n3nc(C)nc3C(C)C)c2)cc1 [Compound 29, 5-(5-Isopropyl-3-methyl-[1,2,4]triazol-1-yl)-4′-methyl-biphenyl-3-carboxylic acid ((S)-2-hydroxy-1-methyl-ethyl)-amide] | 3630 nM | 46.8 nM |
| Cc1ccc(-c2cc(C(=O)N[C@@H](C)CO)cc(-n3ncnc3-c3ccccc3)c2)nc1 [Compound 144, N-((S)-2-Hydroxy-1-methyl-ethyl)-3-(5-methyl-pyridin-2-yl)-5-(5-phenyl-[1,2,4]triazol-1-yl)-benzamide] | 8910 nM | 182 nM |
| COCC(C)NC(=O)c1cc(-c2ccc(C)cc2)cc(-n2nncc2C(C)C)c1 (stereo not drawn) [Compound 9, 5-(5-Isopropyl-[1,2,3]triazol-1-yl)-4′-methyl-biphenyl-3-carboxylic acid (2-methoxy-1-methyl-ethyl)-amide] | 501 nM | 18.6 nM |
| CC(NC(=O)c1cc(-c2ccc(Cl)cn2)cc(-n2ncnc2C(F)(F)F)c1)c1cnccn1 (stereo not drawn) [Compound 79, 3-(5-Chloro-pyridin-2-yl)-N-(1-pyrazin-2-yl-ethyl)-5-(5-trifluoro-methyl-[1,2,4]triazol-1-yl)-benzamide] | 372 nM | 8.51 nM |
| CCCc1ncnn1-c1cc(C(=O)NC(C)c2cnccn2)cc(-c2ccc(C)cn2)c1 (stereo not drawn) [Compound 115, 3-(5-Methyl-pyridin-2-yl)-5-(5-propyl-[1,2,4]triazol-1-yl)-N-(1-pyrazin-2-yl-ethyl)-benzamide] | 79.4 nM | 3.31 nM |
| Cc1ccc(-c2cc(C(=O)NCc3cnc(C)cn3)cc(-n3ncnc3C(C)C)c2)cc1 [Compound 136, 5-(5-Isopropyl-[1,2,4]triazol-1-yl)-4′-methyl-biphenyl-3-carboxylic acid (5-methyl-pyrazin-2-ylmethyl)-amide] | 20.9 nM | 5.37 nM |
| CCc1ncnn1-c1cc(C(=O)NC2CC2)cc(-c2ccc(C)cn2)c1 [Compound 126, N-Cyclopropyl-3-(5-ethyl-[1,2,4]triazol-1-yl)-5-(5-methyl-pyridin-2-yl)-benzamide] | 3720 nM | 29.5 nM |
| COCC(C)NC(=O)c1cc(-c2ccc(C)cc2)cc(-n2ncnc2C(C)C)c1 (stereo not drawn) [Compound 14, 5-(5-Isopropyl-[1,2,4]triazol-1-yl)-4′-methyl-biphenyl-3-carboxylic acid (2-methoxy-1-methyl-ethyl)-amide] | 1020 nM | 12 nM |
| Cc1ccc(-c2cc(C(=O)NC(C)c3cnccn3)cc(-n3c(C)nnc3C(C)C)c2)cc1 (stereo not drawn) [Compound 31, 5-(3-Isopropyl-5-methyl-[1,2,4]triazol-4-yl)-4′-methyl-biphenyl-3-carboxylic acid (1-pyrazin-2-yl-ethyl)-amide] | 398 nM | 35.5 nM |
| Cc1ccc(-c2cc(C(=O)NC3CC3)cc(-n3ncnc3C(F)(F)F)c2)cc1 [Compound 64, 4′-Methyl-5-(5-trifluoromethyl-[1,2,4]triazol-1-yl)-biphenyl-3-carboxylic acid cyclopropylamide] | 309 nM | 4.57 nM |
| COCC(C)NC(=O)c1cc(-c2ccc(C)cc2)cc(-n2nncc2C)c1 (stereo not drawn) [Compound 5, 4′-Methyl-5-(5-methyl-[1,2,3]triazol-1-yl)-biphenyl-3-carboxylic acid (2-methoxy-1-methyl-ethyl)-amide] | 2820 nM | 603 nM |
| C[C@@H](CO)NC(=O)c1cc(-c2ccc(Cl)cn2)cc(-n2ncnc2CF)c1 [Compound 93, 3-(5-Chloro-pyridin-2-yl)-5-(5-fluoromethyl-[1,2,4]triazol-1-yl)-N-((S)-2-hydroxy-1-methyl-ethyl)-benzamide] | 10000 nM | 575 nM |
| COC[C@@H](C)NC(=O)c1cc(-c2ccc(C)cc2)cc(-n2cnnc2C(C)C)c1 [Compound 20, 5-(3-Isopropyl-[1,2,4]triazol-4-yl)-4′-methyl-biphenyl-3-carboxylic acid ((R)-2-methoxy-1-methyl-ethyl)-amide] | 10000 nM | 372 nM |
| Cc1ccc(-c2cc(C(=O)N[C@@H](C)CO)cc(-n3ncnc3C(C)C)c2)nc1 [Compound 55, N-(2-Hydroxy-1-methyl-ethyl)-3-(5-isopropyl-[1,2,4]triazol-1-yl)-5-(5-methyl-pyridin-2-yl)-benzamide] | 457 nM | 5.37 nM |
| COC[C@@H](C)NC(=O)c1cc(-c2ccc(C)cc2)cc(-n2nncc2C)c1 [Compound 6, 4′-Methyl-5-(5-methyl-[1,2,3]triazol-1-yl)-biphenyl-3-carboxylic acid ((R)-2-methoxy-1-methyl-ethyl)-amide] | 2040 nM | 269 nM |
| CCc1ncnn1-c1cc(C(=O)N[C@@H](C)CO)cc(-c2ccc(Cl)cn2)c1 [Compound 107, 3-(5-Chloro-pyridin-2-yl)-5-(5-ethyl-[1,2,4]triazol-1-yl)-N-((S)-2-hydroxy-1-methyl-ethyl)-benzamide] | 10000 nM | 148 nM |
